Assay results as given in publication PMC10651654 (Clinical and Translational Science, 2023).
Values after ≈ are worked out from the molar mass of the structure shown. Where two headings read alike, the source gives them in different places.

What was measured:
[1] = Clinical drug-drug interaction studies; assay type: in vivo, human
CYP3A4 [2] = molecular target: T1, CYP3A4 (Homo sapiens, UniProt P08684); conditions: data on file
[3] = cited from earlier work
CYP2B6 = conditions: source cell empty, row above: ref GastroPlus user manual[10]; cited from earlier work
CYP3A4 [4] = conditions: ref GastroPlus user manual[10], cited from earlier work
[5] = PBPK drug-drug interaction simulations; set-up: species or system human
CYP3A4 [6] = molecular target: T1, CYP3A4; assay type: in vitro ADME; conditions: percent compound remaining after 60 min in presence of NADPH
other CYP isoforms = assay: In vitro metabolism of [14C]-ziritaxestat by CYP isoforms; assay type: in vitro ADME; conditions: human, CYP isoforms other than CYP3A4, 60 min
P-gp = P-gp (Homo sapiens, UniProt P08183); assay: P-gp inhibition in P-gp-transfected cell monolayers; assay type: in vitro ADME
Chain of P-gp (P08183 whole entry): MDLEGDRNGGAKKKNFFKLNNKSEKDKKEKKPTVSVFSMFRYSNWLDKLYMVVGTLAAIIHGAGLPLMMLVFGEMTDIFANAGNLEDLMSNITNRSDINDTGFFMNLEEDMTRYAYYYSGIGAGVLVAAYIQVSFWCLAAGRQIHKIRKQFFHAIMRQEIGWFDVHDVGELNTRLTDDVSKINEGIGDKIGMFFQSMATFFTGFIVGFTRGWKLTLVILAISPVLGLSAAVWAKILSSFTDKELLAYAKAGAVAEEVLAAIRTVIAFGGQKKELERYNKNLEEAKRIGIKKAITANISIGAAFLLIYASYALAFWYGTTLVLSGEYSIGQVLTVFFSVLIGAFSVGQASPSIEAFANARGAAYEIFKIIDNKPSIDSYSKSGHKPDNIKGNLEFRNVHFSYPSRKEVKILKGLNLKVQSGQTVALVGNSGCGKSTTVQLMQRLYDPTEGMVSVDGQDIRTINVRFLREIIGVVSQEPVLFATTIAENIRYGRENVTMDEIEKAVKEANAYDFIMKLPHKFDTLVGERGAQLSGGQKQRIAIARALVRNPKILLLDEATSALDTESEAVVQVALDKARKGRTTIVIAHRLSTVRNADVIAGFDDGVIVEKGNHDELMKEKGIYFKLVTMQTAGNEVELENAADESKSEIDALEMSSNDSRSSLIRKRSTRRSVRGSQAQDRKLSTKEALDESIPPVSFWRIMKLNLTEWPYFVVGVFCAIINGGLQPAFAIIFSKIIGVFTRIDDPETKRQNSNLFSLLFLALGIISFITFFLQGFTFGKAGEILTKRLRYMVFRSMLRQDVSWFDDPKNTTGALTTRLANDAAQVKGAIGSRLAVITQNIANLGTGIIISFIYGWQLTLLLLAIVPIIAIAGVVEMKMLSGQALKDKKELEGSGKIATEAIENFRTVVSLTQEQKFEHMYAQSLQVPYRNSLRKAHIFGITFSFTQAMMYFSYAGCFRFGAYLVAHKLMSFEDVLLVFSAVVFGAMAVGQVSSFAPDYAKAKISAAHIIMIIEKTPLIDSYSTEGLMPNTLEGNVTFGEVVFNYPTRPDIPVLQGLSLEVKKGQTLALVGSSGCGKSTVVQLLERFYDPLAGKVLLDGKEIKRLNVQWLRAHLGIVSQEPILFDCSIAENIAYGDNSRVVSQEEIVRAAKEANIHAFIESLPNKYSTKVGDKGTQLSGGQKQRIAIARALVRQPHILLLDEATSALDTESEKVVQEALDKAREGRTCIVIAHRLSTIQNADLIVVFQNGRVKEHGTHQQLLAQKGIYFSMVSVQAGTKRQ

BCRP = molecular target: T2, BCRP (Homo sapiens, UniProt Q9UNQ0); assay: BCRP inhibition in BCRP-transfected cell monolayers; assay type: in vitro ADME
T2 sequence (Q9UNQ0 1-655): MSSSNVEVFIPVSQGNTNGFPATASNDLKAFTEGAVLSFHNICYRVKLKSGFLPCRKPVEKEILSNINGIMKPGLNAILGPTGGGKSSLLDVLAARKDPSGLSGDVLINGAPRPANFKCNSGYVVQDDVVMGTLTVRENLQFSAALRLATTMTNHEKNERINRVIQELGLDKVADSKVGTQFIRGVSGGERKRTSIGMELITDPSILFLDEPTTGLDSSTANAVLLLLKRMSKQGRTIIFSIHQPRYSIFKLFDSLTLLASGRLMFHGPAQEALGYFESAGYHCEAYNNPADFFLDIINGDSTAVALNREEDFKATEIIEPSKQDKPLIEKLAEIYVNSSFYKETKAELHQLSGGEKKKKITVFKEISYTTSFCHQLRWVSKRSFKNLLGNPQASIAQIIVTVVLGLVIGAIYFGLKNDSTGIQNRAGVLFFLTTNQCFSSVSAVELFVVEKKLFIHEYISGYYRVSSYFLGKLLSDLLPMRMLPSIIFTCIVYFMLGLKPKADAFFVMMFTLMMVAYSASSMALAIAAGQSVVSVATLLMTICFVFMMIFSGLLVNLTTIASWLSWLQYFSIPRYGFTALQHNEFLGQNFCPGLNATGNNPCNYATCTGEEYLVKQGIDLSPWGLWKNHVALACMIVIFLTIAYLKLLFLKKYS

CYP3A4 [7] = molecular target: T1, CYP3A4; assay: biochemical; assay type: in vitro ADME
CYP2C8 = molecular target: T3, CYP2C8 (Homo sapiens, UniProt P10632); assay: CYP2C8 inhibition; assay type: in vitro ADME
T3 sequence (P10632 1-490): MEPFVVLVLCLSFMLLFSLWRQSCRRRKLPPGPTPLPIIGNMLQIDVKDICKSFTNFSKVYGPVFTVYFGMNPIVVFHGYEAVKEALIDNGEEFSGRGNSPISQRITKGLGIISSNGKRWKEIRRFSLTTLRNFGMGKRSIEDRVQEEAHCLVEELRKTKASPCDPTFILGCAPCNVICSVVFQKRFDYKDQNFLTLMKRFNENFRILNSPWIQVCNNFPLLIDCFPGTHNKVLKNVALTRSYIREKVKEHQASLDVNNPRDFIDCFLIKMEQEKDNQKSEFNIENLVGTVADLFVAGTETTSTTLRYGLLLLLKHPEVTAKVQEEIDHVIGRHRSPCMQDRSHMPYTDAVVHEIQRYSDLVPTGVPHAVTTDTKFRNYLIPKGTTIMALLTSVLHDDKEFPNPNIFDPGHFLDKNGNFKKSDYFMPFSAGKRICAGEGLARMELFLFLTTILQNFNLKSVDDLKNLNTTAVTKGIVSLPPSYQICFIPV

CYP2C9 = CYP2C9 (Homo sapiens, UniProt P11712); assay: CYP2C9 inhibition; assay type: in vitro ADME
Chain of CYP2C9 (P11712 whole entry): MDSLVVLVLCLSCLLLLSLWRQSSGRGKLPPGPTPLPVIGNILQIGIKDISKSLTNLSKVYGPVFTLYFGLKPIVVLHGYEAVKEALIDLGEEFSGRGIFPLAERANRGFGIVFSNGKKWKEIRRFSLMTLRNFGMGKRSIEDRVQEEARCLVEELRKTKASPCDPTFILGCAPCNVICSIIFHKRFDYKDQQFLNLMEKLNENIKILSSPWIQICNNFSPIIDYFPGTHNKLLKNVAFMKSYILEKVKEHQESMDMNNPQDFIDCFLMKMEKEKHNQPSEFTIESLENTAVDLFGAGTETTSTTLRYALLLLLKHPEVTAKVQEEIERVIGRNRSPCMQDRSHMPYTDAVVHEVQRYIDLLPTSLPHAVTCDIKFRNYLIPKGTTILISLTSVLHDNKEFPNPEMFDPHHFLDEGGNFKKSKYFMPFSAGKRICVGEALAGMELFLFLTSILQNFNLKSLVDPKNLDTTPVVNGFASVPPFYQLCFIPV

OATP1B1 = molecular target: T4, OATP1B1 (Homo sapiens, UniProt Q9Y6L6); assay: OATP1B1 inhibition; assay type: in vitro ADME
T4 sequence (Q9Y6L6 1-691): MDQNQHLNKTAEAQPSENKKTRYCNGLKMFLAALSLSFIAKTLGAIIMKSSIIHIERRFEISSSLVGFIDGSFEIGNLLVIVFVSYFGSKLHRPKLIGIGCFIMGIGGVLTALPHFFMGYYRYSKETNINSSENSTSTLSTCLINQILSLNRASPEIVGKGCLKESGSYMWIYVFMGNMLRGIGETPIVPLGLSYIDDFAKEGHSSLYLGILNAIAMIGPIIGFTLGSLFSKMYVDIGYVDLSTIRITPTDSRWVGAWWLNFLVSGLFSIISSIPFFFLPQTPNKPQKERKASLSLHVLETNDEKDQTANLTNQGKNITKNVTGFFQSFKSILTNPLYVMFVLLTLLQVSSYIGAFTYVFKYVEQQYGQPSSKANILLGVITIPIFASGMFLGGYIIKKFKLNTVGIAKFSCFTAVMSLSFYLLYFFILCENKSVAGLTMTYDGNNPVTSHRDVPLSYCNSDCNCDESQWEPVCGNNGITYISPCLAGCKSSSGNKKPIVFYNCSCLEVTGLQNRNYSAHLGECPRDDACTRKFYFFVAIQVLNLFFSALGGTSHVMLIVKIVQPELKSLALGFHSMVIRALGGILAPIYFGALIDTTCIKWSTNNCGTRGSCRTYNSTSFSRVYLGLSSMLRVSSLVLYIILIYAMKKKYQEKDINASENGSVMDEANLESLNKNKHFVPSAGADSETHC

OATP1B3 = molecular target: T5, OATP1B3 (Homo sapiens, UniProt Q9NPD5); assay: OATP1B3 inhibition; assay type: in vitro ADME
T5 sequence (Q9NPD5 1-702): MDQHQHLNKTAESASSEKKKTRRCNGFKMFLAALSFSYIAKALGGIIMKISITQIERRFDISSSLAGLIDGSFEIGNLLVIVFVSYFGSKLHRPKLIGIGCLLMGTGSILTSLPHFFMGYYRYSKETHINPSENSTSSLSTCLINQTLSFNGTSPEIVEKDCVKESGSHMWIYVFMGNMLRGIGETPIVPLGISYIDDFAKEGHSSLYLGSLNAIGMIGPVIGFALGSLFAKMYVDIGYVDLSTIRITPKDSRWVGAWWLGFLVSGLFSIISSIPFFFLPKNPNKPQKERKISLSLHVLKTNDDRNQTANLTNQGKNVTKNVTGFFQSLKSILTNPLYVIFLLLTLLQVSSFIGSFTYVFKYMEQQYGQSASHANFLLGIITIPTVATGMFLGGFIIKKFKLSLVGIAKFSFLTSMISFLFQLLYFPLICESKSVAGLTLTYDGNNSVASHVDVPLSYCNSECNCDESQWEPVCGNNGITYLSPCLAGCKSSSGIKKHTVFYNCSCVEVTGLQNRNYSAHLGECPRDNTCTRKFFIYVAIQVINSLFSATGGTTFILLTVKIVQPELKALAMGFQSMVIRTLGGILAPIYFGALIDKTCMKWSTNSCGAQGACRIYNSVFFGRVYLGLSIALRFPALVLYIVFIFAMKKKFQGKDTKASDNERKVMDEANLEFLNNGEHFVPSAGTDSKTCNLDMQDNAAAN

[8] = Physicochemical input parameters
[9] = Apparent permeability in Caco-2 cells; assay type: in vitro ADME; conditions: human
[10] = cited from earlier work; remark: listed apart in the source
[11] = cited from earlier work; remark: listed apart in the source
PBPK model = conditions: human, oral, 600 mg
[12] = pravastatin probe verification, interaction with gemfibrozil (OATP1B1 inhibitor)

T1 sequence (P08684 whole entry): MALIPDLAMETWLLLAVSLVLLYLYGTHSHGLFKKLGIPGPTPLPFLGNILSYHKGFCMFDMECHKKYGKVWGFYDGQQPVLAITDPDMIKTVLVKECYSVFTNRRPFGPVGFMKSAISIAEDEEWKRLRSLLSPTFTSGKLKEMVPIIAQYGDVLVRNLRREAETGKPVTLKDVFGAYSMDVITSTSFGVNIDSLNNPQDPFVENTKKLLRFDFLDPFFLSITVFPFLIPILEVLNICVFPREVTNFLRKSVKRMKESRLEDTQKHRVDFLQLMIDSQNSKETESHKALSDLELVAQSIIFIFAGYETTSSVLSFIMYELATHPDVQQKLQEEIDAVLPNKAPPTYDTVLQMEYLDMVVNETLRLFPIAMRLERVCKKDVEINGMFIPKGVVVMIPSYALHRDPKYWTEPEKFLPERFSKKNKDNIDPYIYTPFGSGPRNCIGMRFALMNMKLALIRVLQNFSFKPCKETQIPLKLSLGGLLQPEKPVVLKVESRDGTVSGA

COC(=O)c1ccc2c(c1)NC(=O)/C2=C(\Nc1ccc(N(C)C(=O)CN2CCN(C)CC2)cc1)c1ccccc1 [Nintedanib, nintedanib]
increase in nintedanib exposure with ziritaxestat ([1]; clinical DDI study, data on file): approximately two‐fold
contribution of CYP3A4 to metabolism (CYP3A4 [2]): ~ 7%
reduction of nintedanib exposure by pirfenidone [3]: 1.5 fold

O=C1Nc2ccc(Cl)cc2[C@@](C#CC2CC2)(C(F)(F)F)O1 [Efavirenz]
Emax induction CYP2B6 (CYP2B6): 5.76

CC(=O)N1CCN(c2ccc(OCC3COC(Cn4ccnc4)(c4ccc(Cl)cc4Cl)O3)cc2)CC1 (stereo not shown) [Ketoconazole]
observed-to-predicted AUC ratio ([5]; efavirenz verification with ketoconazole as victim): 0.90

CCc1nc2c(C)cc(N3CCN(CC(=O)N4CC(O)C4)CC3)cn2c1N(C)c1nc(-c2ccc(F)cc2)c(C#N)s1 [Ziritaxestat, ziritaxestat]
[14C]-ziritaxestat metabolized by CYP3A4 (CYP3A4 [6]; 10 μM): 84.5%
[14C]-ziritaxestat metabolized by CYP3A4 (CYP3A4 [6]; 100 μM): 28.6%
contribution of other CYP isoforms to metabolism (maximum) (other CYP isoforms): ≤ 2.1%
IC50 (P-gp): > 40 µM
IC50 (BCRP): > 40 µM
IC50 (CYP3A4 [7]): 3.7 µM
Ki (CYP2C8): 0.753 µM
time-dependent inhibition of CYP2C8 (in words) (CYP2C8): strong
fraction unbound (CYP2C8; human): 0.52
IC50 (CYP2C9): 13.1 µM
fraction unbound (CYP2C9; human): 0.24
inhibitory potential for OATP1B1 (in words) (OATP1B1): weak
IC50 (OATP1B3): 7.04 µM
solubility ([8]; FaSSIF): 0.54 mg/mL (≈ 917 µM)
solubility ([8]; buffer, pH 7.5, aqueous buffer): 0.066 mg/mL (≈ 112 µM)
logD ([8]; octanol/water, pH 8.25): 3.81
pKa ([8]; pKa1 (base)): 4.99
pKa ([8]; pKa2 (base)): 5.89
Papp [9]: 470 nm/s
classification as CYP3A4 substrate ([1]; human, in vivo): moderately sensitive CYP3A4 substrate
AUC0–∞ ratio, observed DDI ratio ([1]; ziritaxestat 600 mg SD with/without voriconazole 800 mg SD, data on file): 4.0
fraction absorbed ([10]; 600 mg dose): at least 86%
hepatic first-pass metabolism [10]: 9%
volume of distribution at steady state from observed data, mean [SD] [10]: 23 [11] L
renal excretion of total radioactivity ([10]; single p.o. 600 mg [14C]-ziritaxestat, healthy male subjects): < 7%
mortality (in words) ([11]; 200 mg and 600 mg daily doses vs placebo): increased mortality compared with placebo
efficacy in IPF (in words) ([11]; 200 mg and 600 mg daily doses): failed to demonstrate efficacy
Papp (PBPK model): 1200 nm/s

CC[C@H](C)C(=O)O[C@H]1C[C@H](O)C=C2C=C[C@H](C)[C@H](CC[C@@H](O)C[C@@H](O)CC(=O)O)[C@H]21 [Pravastatin, pravastatin]
observed-to-predicted AUC ratio [5, 12]: 1.03
observed-to-predicted Cmax ratio [5, 12]: 1.10
